Experimental findings from patent US8314121B2, “Imidazolone derivatives, preparation thereof as drugs, pharmaceutical compositions, and use thereof as protein kinase inhibitors, in particular CDC7” (Sanofi, priority 2006, dated 2012) are described below.

Broadly, the melting point is the temperature, or range, at which the solid turns liquid.

Structures are written as SMILES.

As for `CC(C)SC1=N/C(=C\c2c[nH]c3ncc(Cl)cc23)C(=O)N1` [Example 63, (5Z)-5-[(5-chloro-1H-pyrrolo[2,3-b]pyridin-3-yl)methylidene]-2-((1-methyl)ethylsulphanyl)-3,5-dihydro-4H-imidazol-4-one], the melting point was 291 to 293 °C. As for `CCCCC1=N/C(=C\c2c[nH]c3ncc(Cl)cc23)C(=O)N1` [Example 64, (5Z)-2-butyl-5-[(5-chloro-1H-pyrrolo[2,3-b]pyridin-3-yl)methylidene]-3,5-dihydro-4H-imidazol-4-one], the melting point lay in the range of 288 to 290 °C. Under `CCCCC1=N/C(=C\c2c[nH]c3nc(Cl)ccc23)C(=O)N1` [Example 65, (5Z)-2-butyl-5-[(6-chloro-1H-pyrrolo[2,3-b]pyridin-3-yl)methylidene]-3,5-dihydro-4H-imidazol-4-one] stands 318 to 321 °C. As for `CCCCC1=N/C(=C\c2c[nH]c3ncccc23)C(=O)N1C` [Example 66, (5Z)-2-butyl-3-methyl-5-(1H-pyrrolo[2,3-b]pyridin-3-ylmethylidene)-3,5-dihydro-4H-imidazol-4-one], the melting point fell in the range of 220 to 222 °C. Under `O=C1NC(CCc2ccccc2)=N/C1=C\c1c[nH]c2ncccc12` [Example 67, (5Z)-2-(2-Phenylethyl)-5-(1H-pyrrolo[2,3-b]pyridin-3-ylmethylidene)-3,5-dihydro-4H-imidazol-4-one] stands 270 to 272 °C; under `CC(C)CCC1=N/C(=C\c2c[nH]c3ncccc23)C(=O)N1` [Example 68, (5Z)-2-(3-methylbutyl)-5-(1H-pyrrolo[2,3-b]pyridin-3-ylmethylidene)-3,5-dihydro-4H-imidazol-4-one], 274 °C. Under `CN1C(=O)/C(=C/c2c[nH]c3ncccc23)N=C1C1CCCCC1` [Example 70, (5Z)-2-cyclohexyl-3-methyl-5-(1H-pyrrolo[2,3-b]pyridin-3-ylmethylidene)-3,5-dihydro-4H-imidazol-4-one] stands 261 to 262 °C; under `O=C1NC(C2CCOCC2)=N/C1=C\c1c[nH]c2ncccc12` [Example 71, (5Z)-5-(1H-pyrrolo[2,3-b]pyridin-3-ylmethylidene)-2-(tetrahydro-2H-pyran-4-yl)-3,5-dihydro-4H-imidazol-4-one], 317 to 319 °C. The molecule `CN1C(=O)/C(=C/c2c[nH]c3ncccc23)N=C1C1CCOCC1` [Example 72, (5Z)-5-[(1H-pyrrolo[2,3-b]pyridin-3-yl)methylidene]-3-methyl-2-(tetrahydro-2H-pyran-4-yl)-3,5-dihydro-4H-imidazol-4-one] had a melting point of 283 to 285 °C. As to `CN1C(=O)/C(=C/c2c[nH]c3ncc(Cl)cc23)N=C1C1CCOCC1` [Example 73, (5Z)-5-[(5-chloro-1H-pyrrolo[2,3-b]pyridin-3-yl)methylidene]-3-methyl-2-(tetrahydro-2H-pyran-4-yl)-3,5-dihydro-4H-imidazol-4-one], the melting point was 338 °C. The result for `CC(C)CC1=N/C(=C\c2c[nH]c3ncccc23)C(=O)N1` [Example 74, (5Z)-2-(2-methylpropyl)-5-(1H-pyrrolo[2,3-b]pyridin-3-ylmethylidene)-3,5-dihydro-4H-imidazol-4-one] reads 292 to 293 °C; that for `CC(C)CC1=N/C(=C\c2c[nH]c3ncccc23)C(=O)N1C` [Example 75, (5Z)-3-methyl-2-(2-methylpropyl)-5-(1H-pyrrolo[2,3-b]pyridin-3-ylmethylidene)-3,5-dihydro-4H-imidazol-4-one], 201 °C.

`CC(C)CC1=N/C(=C\c2c[nH]c3ncc(Cl)cc23)C(=O)N1C` [Example 76, (5Z)-5-[(5-chloro-1H-pyrrolo[2,3-b]pyridin-3-yl)methylidene]-3-methyl-2-(2-methylpropyl)-3,5-dihydro-4H-imidazol-4-one] returned a melting point of 282 °C. For `O=C1NC(CC2CC2)=N/C1=C\c1c[nH]c2ncccc12` [Example 77, (5Z)-2-(cyclopropylmethyl)-5-(1H-pyrrolo[2,3-b]pyridin-3-ylmethylidene)-3,5-dihydro-4H-imidazol-4-one], the melting point was 289 °C. Molecule `O=C1NC(CC2CC2)=N/C1=C\c1c[nH]c2ncc(Cl)cc12` [Example 78, (5Z)-2-(cyclopropylmethyl)-5-(5-chloro-1H-pyrrolo[2,3-b]pyridin-3-ylmethylidene)-3,5-dihydro-4H-imidazol-4-one] displayed a melting point of 295 to 296 °C. The result for `CC(C)C1=N/C(=C\c2c[nH]c3ncccc23)C(=O)N1` [Example 79, (5Z)-2-(1-methylethyl)-5-(1H-pyrrolo[2,3-b]pyridin-3-ylmethylidene)-3,5-dihydro-4H-imidazol-4-one] reads 309 to 310 °C; that for `CC(C)C1=N/C(=C\c2c[nH]c3ncc(Cl)cc23)C(=O)N1` [Example 80, (5Z)-2-(1-methylethyl)-5-(5-chloro-1H-pyrrolo[2,3-b]pyridin-3-ylmethylidene)-3,5-dihydro-4H-imidazol-4-one], 277 to 280 °C. The result for `CC(C)C1=N/C(=C\c2c[nH]c3ncccc23)C(=O)N1C` [Example 81, (5Z)-3-methyl-2-(1-methylethyl)-5-(1H-pyrrolo[2,3-b]pyridin-3-ylmethylidene)-3,5-dihydro-4H-imidazol-4-one] reads 222 to 224 °C; that for `CC(C)C1=N/C(=C\c2c[nH]c3ncc(Cl)cc23)C(=O)N1C` [Example 82, (5Z)-5-[(5-chloro-1H-pyrrolo[2,3-b]pyridin-3-yl)methylidene]-3-methyl-2-(1-methylethyl)-3,5-dihydro-4H-imidazol-4-one], 282 °C. The result for `CCCN1C(=O)/C(=C/c2c[nH]c3ncccc23)N=C1C` [Example 87, (5Z)-2-methyl-3-propyl-5-(1H-pyrrolo[2,3-b]pyridin-3-ylmethylidene)-3,5-dihydro-4H-imidazol-4-one] reads 206 °C.

As to `CN(Cc1ccccc1)C1=N/C(=C\c2c[nH]c3ncc(Cl)cc23)C(=O)N1` [Example 93, (5Z)-2-[benzyl(methyl)amino]-5-[(5-chloro-1H-pyrrolo[2,3-b]pyridin-3-yl)methylidene]-3,5-dihydro-4H-imidazol-4-one], the melting point is 310 °C.

`CN(Cc1ccco1)C1=N/C(=C\c2c[nH]c3ncc(Cl)cc23)C(=O)N1` [Example 94, (5Z)-5-[(5-chloro-1H-pyrrolo[2,3-b]pyridin-3-yl)methylidene]-2-[(furan-2-ylmethyl)(methyl)amino]-3,5-dihydro-4H-imidazol-4-one] showed a melting point of 315 °C. The result for `COCCN(C)C1=N/C(=C\c2c[nH]c3ncc(Cl)cc23)C(=O)N1` [Example 95, (5Z)-5-[(5-chloro-1H-pyrrolo[2,3-b]pyridin-3-yl)methylidene]-2-[(2-methoxyethyl)(methyl)amino]-3,5-dihydro-4H-imidazol-4-one] reads 281 °C; that for `CN(Cc1ccccn1)C1=N/C(=C\c2c[nH]c3ncc(Cl)cc23)C(=O)N1` [Example 96, (5Z)-5-[(5-chloro-1H-pyrrolo[2,3-b]pyridin-3-yl)methylidene]-2-[methyl(pyridin-2-ylmethyl)amino]-3,5-dihydro-4H-imidazol-4-one], 350 °C; that for `O=C1/C(=C/c2c[nH]c3ncc(Cl)cc23)N=C(Oc2ccccc2)N1c1ccccc1` [Example 97, (5Z)-5-[(5-chloro-1H-pyrrolo[2,3-b]pyridin-3-yl)methylidene]-2-phenoxy-3-phenyl-3,5-dihydro-4H-imidazol-4-one], 287 °C. For `COC1=N/C(=C\c2c[nH]c3ncc(Cl)cc23)C(=O)N1c1ccccc1` [Example 98, (5Z)-5-[1-(5-chloro-1H-pyrrolo[2,3-b]pyridin-3-yl)-methylidene]-2-methoxy-3-phenyl-3,5-dihydro-4H-imidazol-4-one], the melting point is 227.5 °C.
